Here are results for three molecules from US20100063070A1, “COMBINATION FOR USE IN THE TREATMENT OF INFLAMMATORY DISORDERS” (priority 2006, published 2010).

The subject of assay [1] is zymosan-induced PMN leukocyte accumulation. Nature of the assay: Zymosan-induced peritonitis in the mouse (PMN leukocytes in peritoneal lavage fluid). In kind it is in vivo. To be noted: NMRI mice; 5 hours after i.p. zymosan; pemirolast 0.5 mg i.p. with zymosan; atorvastatin sodium 0.35 mg 24 hours and 90 minutes before. Here is the method: The atorvastatin injection was given 24 hours before zymosan was administered i.p. and the atorvastatin injection was given 90 minutes before zymosan was administered […]. Prior to injection, atorvastatin was dissolved at 1 mg/mL in sterile PBS using sonication and warming as needed. […] The number of polymorphonuclear (PMN) leukocytes per mL of lavage fluid was counted by light microscopy (using standard morphological criteria) following staining of nuclei with Tü's solution. Lavage fluid from non-inflamed peritoneal cavities from untreated animals provided baseline levels of PMN leukocytes.

For assay [2], the system named is human macrophage cell-line MonoMac-6 (MM6). Nature of the assay: Inhibition of macrophage proliferation (WST-1 reagent). It counts as cell-based. To be noted: 48 hours, n=5; for inhibition at 10 µM / inhibition at 30 µM / inhibition at 100 µM: Homo sapiens; for inhibition at 10 µM: MONO-MAC-6, 10 μM drug alone; for inhibition at 30 µM: MONO-MAC-6, 30 μM drug alone; for inhibition at 100 µM: MONO-MAC-6, 100 μM drug alone. As for the experimental part:
Cells from the human macrophage cell-line MonoMac-6 (MM6) (Ziegler-Heitbrock et al, Int. J. Cancer, 41, 456 (1988)) were cultured (37° C./5% CO2) in RPMI-1640 medium supplemented with 1 mM sodium pyruvate, 1× nonessential amino acids, 1-100 μg/mL insulin, 1 mM oxalacetic acid, 100 units/mL penicillin, 100 μg/mL streptomycin and 10% (v/v) fetal bovine serum. At the start of the experiment, MM6 cells were seeded in 96-well plates at a density of 1×10^5 cells/mL (100 μl per well). Proliferation of the MM6 cells was measured using the Cell Proliferation Reagent WST-1 (Roche Diagnostics Scandinavia AB, Bromma, Sweden) or by cell counting using a microscope. The WST-1 reagent is designed to be used for spectrophotometric quantification of e.g. cell growth in proliferation assays and was used according to the manufacturers' instructions. The wavelength for measuring absorbance was 450 nm and the absorbance of all untreated control cells exposed to the WST-1 reagent was between 1.0 and 2.5. Stock solutions of pemirolast (potassium salt; see Example 19 above) and rosuvastatin (sodium salt; see Example 19 above) were made in sterile saline.
Untreated MM6 cells increased from 1×10^5 cells/mL at the start of the experiment to 1.4×10^5±0.06×10^5 cells/mL and 2.3×10^5±0.10×10^5 cells/mL after 24 and 48 hours, respectively (mean values±sem, n=4 for each of the three time-points). The effects of pemirolast and/or rosuvastatin (added at the start of the experiments) on MM6 cell proliferation were studied 48 hours after start of the experiments using the WST-1 reagent described above.
The procedure described in Example 20 was repeated for atorvastatin (sodium salt; received as atorvastatin calcium as a gift from Biocon, Ltd., Bangalore, India and converted into sodium salt by firstly converting the calcium salt into the free acid by addition of aqueous hydrochloric acid and then, after isolation via extraction, adding one equivalent of aqueous NaOH).
In general terms: Tetrazolium dyes change colour on reduction, which living cells bring about.

The subject of assay [3] is bone marrow-derived cultured mouse mast cells (mMC). Nature of the assay: Inhibition of mast cell interferon-γ formation (IgE-receptor cross-linking with TNP-BSA, Cytometric Bead Array). It counts as cell-based. To be noted: for mean IFN-γ concentration in supernatants: mMC stimulated with TNP-BSA for 24 hours, n=2. As for the experimental part: Bone marrow-derived cultured mouse mast cells (mMC) were obtained by culturing bone marrow cells from female C57BL/6 mice. The bone marrow cells (from mouse femurs flushed with PBS) were cultured (37° C./5% CO2) in 10% X-63 enriched conditioned RPMI 1640, supplemented with 10% heat-inactivated fetal bovine serum, 4 mM L-glutamine, 50 μM 2-mercaptoethanol, 1 mM sodium pyruvate, 0.1 mM non-essential amino acids, 10 mM Hepes, 100 units/mL penicillin and 100 μg/mL streptomycin. Development of mast cells was confirmed by toluidine blue staining. The experiments were performed after 6 to 8 weeks of culture. To activate the mMC through cross-linking of cell-surface IgE-receptors, the cultured mMC were initially sensitized for 90 minutes at 37° C. (5% CO2) with a monoclonal mouse anti-TNP IgE-antibody (IgE1-b4, ATCC, Rockville, Md., USA), used as a 15% hybridoma supernatant. Cells were then subjected to two washings with PBS and re-suspended in RPMI-1640 medium supplemented with 0.2% bovine serum albumin (BSA) before the cells (0.5 mL of medium with 1×10^6 cells per mL) were activated by addition of TNP-BSA (Biosearch Technologies, San Francisco, Calif.) with a coupling ratio of 9/1 (the final TNP-BSA concentration was 100 ng/mL). The incubation (37° C./5% CO2) with TNP-BSA was 24 hours. Before the incubation with TNP-BSA, some cells were treated/incubated (37° C./5% CO2) with the test drugs pemirolast (potassium salt purchased from American Custom Chemicals Corporation, San Diego, Calif., USA) and/or rosuvastatin (extracted and purified from commercially available Crestor® tablets and isolated as calcium salt as described in Bioorganic & Medicinal Chemistry, Vol. 5, No. 5, pp 437-444, 1997 by adding CaCl2) 30 minutes prior to addition of TNP-BSA (stock solutions of the drugs were made in sterile saline). For comparison, some experiments were performed without the drug treatments. After the incubations with TNP-BSA, the samples were centrifuged at 4° C. to spin down the cells and the supernatants analysed with regard to content of mouse IFN-γ using the BD™ Cytometric Bead Array (CBA) Mouse Inflammation Kit from BD Biosciences Pharmingen, San Diego, USA (the kit was used according to the manufacturer's instructions).

Molecules are shown by their SMILES.

With `CC(C)c1c(C(=O)Nc2ccccc2)c(-c2ccccc2)c(-c2ccc(F)cc2)n1CC[C@@H](O)C[C@@H](O)CC(=O)O` [atorvastatin], in assay [1], the “reduction of zymosan-induced PMN leukocyte accumulation compared with untreated animals” value is on record as 25.9%. Further, in assay [2], at 10 µM the inhibition was 19.9%; 30 µM produced 27% inhibition; the inhibition (as a rule, the share of the control response that was lost under treatment) at 100 µM came to 54.4%.

Regarding `Cc1cccn2c(=O)c(-c3nnn[nH]3)cnc12` [pemirolast], the results for the “mean IFN-γ concentration in supernatants” value in assay [3] (3 μM drug alone) and in assay [3] (30 μM drug alone) were 2.00 µg/mL and 1.74 µg/mL, respectively. Further, the “reduction of IFN-γ compared with the untreated cells” value in assay [3] (30 μM drug alone, TNP-BSA 24 hours) is listed as “about 3%”. Moreover, in assay [1], the “reduction of zymosan-induced PMN leukocyte accumulation compared with untreated animals” value is given as 10.1%. In assay [2] (10 μM drug alone), the “inhibition of MM6 proliferation” value was “very similar to that of 100 μM of pemirolast”. The inhibition at 100 µM in assay [2] was 9.4%.

Turning to `CC(C)c1nc(N(C)S(C)(=O)=O)nc(-c2ccc(F)cc2)c1/C=C/[C@@H](O)C[C@@H](O)CC(=O)O` [rosuvastatin], in assay [3] (3 μM drug alone), the “mean IFN-γ concentration in supernatants” value came out at 2.26 µg/mL. Moreover, in assay [3] (30 μM drug alone), the “mean IFN-γ concentration in supernatants” value was found to be 1.88 µg/mL. For the same molecule, in assay [2], the inhibition at 10 µM stood at 16.6%, 30 µM produced 22.7% inhibition and 100 µM produced 66.9% inhibition.
